In US20150105252A1, “SUBSTITUTED PYRAZOLES AS HERBICIDES” (E I DU PONT DE NEMOURS AND COMPANY, priority 2013, published 2015):

Legend:
crabgrass, large = assay: Test A preemergence; assay type: in vivo, Digitaria sanguinalis; conditions: preemergence
Summary of the method: (§1)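 Both timings tested concurrently in loam/sand soil: preemergence by directed soil spray, postemergence on plants of 2–10 cm at the one- to two-leaf stage. Greenhouse holding period was approximately 10 days before visual injury assessment (0–100, 0 = no effect).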

wheat [1] = assay: Test A preemergence; assay type: in vivo, Triticum aestivum; conditions: preemergence
Summary of the method: as §1

wheat [2] = assay: Test A postemergence; assay type: in vivo, Triticum aestivum
Summary of the method: as §1

corn = assay: Test C preemergence; assay type: in vivo, Zea mays
Summary of the method: (§2)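 Visual control ratings on a 0–100 scale (100 = complete control) made against untreated controls after 13 to 15 days in greenhouse. Compounds applied in surfactant-containing solvent mixture, either preemergence to loam/sand-sown seeds or postemergence to 1- to 4-leaf plants (2–18 cm) in peat medium.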

nutsedge, yellow = assay: Test C preemergence; assay type: in vivo, Cyperus esculentus
Summary of the method: as §2

waterhemp = assay: Test C preemergence; assay type: in vivo, Amaranthus rudis
Summary of the method: as §2

velvetleaf [3] = assay: Test C preemergence; assay type: in vivo, Abutilon theophrasti
Summary of the method: as §2

blackgrass = assay: Test C postemergence; assay type: in vivo, Alopecurus myosuroides; conditions: for Plant response rating (scale of 0 to 100 where 0 is no effect and 100 is complete control), Blackgrass: Postemergence, 31 g ai/ha, visually evaluated after 13 to 15 days; for Blackgrass plant response rating / Plant response rating, Blackgrass: postemergence; for Blackgrass plant response rating: 62 g ai/ha, scale 0 to 100
Summary of the method: as §2

soybean = assay: Test C postemergence; assay type: in vivo, Glycine max; conditions: for Soybean plant response rating / Plant response rating, Soybean: postemergence
Summary of the method: as §2

barnyardgrass = assay: Test C postemergence; assay type: in vivo, Echinochloa crus-galli; conditions: for Plant response rating (scale of 0 to 100 where 0 is no effect and 100 is complete control), Barnyardgrass: Postemergence, 31 g ai/ha, visually evaluated after 13 to 15 days; for Barnyardgrass plant response rating / Plant response rating, Barnyardgrass: postemergence; for Barnyardgrass plant response rating: 62 g ai/ha, scale 0 to 100
Summary of the method: as §2

oilseed rape = assay: Test C postemergence; assay type: in vivo, Brassica napus; conditions: for Oilseed Rape plant response rating / Plant response rating, Oilseed Rape: postemergence; for Oilseed Rape plant response rating: 62 g ai/ha, scale 0 to 100
Summary of the method: as §2

kochia = assay: Test C postemergence; assay type: in vivo, Kochia scoparia; conditions: for Plant response rating (scale of 0 to 100 where 0 is no effect and 100 is complete control), Kochia: Postemergence, 31 g ai/ha, visually evaluated after 13 to 15 days; for Kochia plant response rating / Plant response rating, Kochia: postemergence; for Kochia plant response rating: 62 g ai/ha, scale 0 to 100
Summary of the method: as §2

velvetleaf [4] = assay: Test C postemergence; assay type: in vivo, Abutilon theophrasti; conditions: for Velvetleaf plant response rating / Plant response rating, Velvetleaf: postemergence; for Velvetleaf plant response rating: scale 0 to 100
Summary of the method: as §2

[5] = 125 g ai/ha, visual injury, 0 to 100 scale, approx. 10 days
[6] = 500 g ai/ha, visual injury after approx. 10 days, 0 to 100 scale (0 no effect, 100 complete control)
[7] = preemergence, 31 g ai/ha, visual rating, scale 0 to 100 (0 no effect, 100 complete control), 13 to 15 days
[8] = preemergence, 62 g ai/ha, scale 0 to 100 (0 no effect, 100 complete control), 13 to 15 days
[9] = preemergence, 125 g ai/ha, scale 0 to 100, 0 is no effect, 100 is complete control
[10] = 250 g ai/ha, scale 0 to 100 (0 no effect, 100 complete control)
[11] = 125 g ai/ha, scale 0 to 100, 0 no effect, 100 complete control
[12] = Postemergence, 31 g ai/ha, visually evaluated after 13 to 15 days
[13] = 125 g ai/ha, visual injury approx. 10 days after treatment
[14] = preemergence, 125 g ai/ha, 13 to 15 days, scale 0 to 100, 0 = no effect, 100 = complete control
[15] = preemergence, 250 g ai/ha, scale 0 to 100, 0 is no effect, 100 is complete control

CCc1cc(-c2ccc(C(F)(F)F)cc2)nn1Cc1ccnc(C(F)(F)F)c1 [Compound 110]
Crabgrass, Large plant response rating (crabgrass, large; [5]): 100 | Crabgrass, Large plant response rating (crabgrass, large; [6]): 100 | Wheat plant response rating (wheat [1]; [5]): 80 | Wheat plant response rating (wheat [1]; [6]): 100 | Wheat plant response rating (wheat [2]; Postemergence, 500 g ai/ha, visual rating after approx. 10 days, 0 to 100 scale (0 no effect, 100 complete control)): 90 | Wheat plant response rating (wheat [2]; postemergence, 125 g ai/ha, about 10 days, visual rating on 0 to 100 scale (0 no effect, 100 complete control)): 80 | Plant response rating (scale of 0 to 100), Corn (corn; Preemergence, 250 g ai/ha): 10 | Corn plant response rating (corn; [7]): 5 | Corn plant response rating (corn; [8]): 5 | Corn plant response rating (corn; [9]): 5 | Plant response rating (scale of 0 to 100), Nutsedge, Yellow (nutsedge, yellow; Preemergence, 250 g ai/ha): 5 | Nutsedge, Yellow plant response rating (nutsedge, yellow; [8]): 5 | Nutsedge, Yellow plant response rating (nutsedge, yellow; [9]): 5 | Plant response rating (scale of 0 to 100), Waterhemp (waterhemp; Preemergence, 250 g ai/ha): 100 | Waterhemp plant response rating (waterhemp; [7]): 100 | Waterhemp plant response rating (waterhemp; [8]): 100 | Waterhemp plant response rating (waterhemp; [9]): 100 | Plant response rating (scale of 0 to 100), Velvetleaf (velvetleaf [3]; Preemergence, 250 g ai/ha): 75 | Velvetleaf plant response rating (velvetleaf [3]; [7]): 50 | Velvetleaf plant response rating (velvetleaf [3]; [8]): 50 | Velvetleaf plant response rating (velvetleaf [3]; [9]): 70 | Plant response rating (scale of 0 to 100 where 0 is no effect and 100 is complete control), Blackgrass (blackgrass): 30 | Blackgrass plant response rating (blackgrass): 35 | Plant response rating, Blackgrass (blackgrass; [10]): 60 | Plant response rating, Blackgrass (blackgrass; [11]): 45 | Plant response rating (scale of 0 to 100 where 0 is no effect and 100 is complete control), Soybean (soybean; [12]): 35 | Soybean plant response rating (soybean; 62 g ai/ha, scale 0 to 100): 55 | Plant response rating, Soybean (soybean; [10]): 85 | Plant response rating, Soybean (soybean; [11]): 70 | Plant response rating (scale of 0 to 100 where 0 is no effect and 100 is complete control), Barnyardgrass (barnyardgrass): 20 | Barnyardgrass plant response rating (barnyardgrass): 35 | Plant response rating, Barnyardgrass (barnyardgrass; [10]): 65 | Plant response rating, Barnyardgrass (barnyardgrass; [11]): 55 | Plant response rating (scale of 0 to 100 where 0 is no effect and 100 is complete control), Oilseed Rape (oilseed rape; [12]): 60 | Oilseed Rape plant response rating (oilseed rape): 85 | Plant response rating, Oilseed Rape (oilseed rape; [10]): 90 | Plant response rating, Oilseed Rape (oilseed rape; [11]): 90 | Plant response rating (scale of 0 to 100 where 0 is no effect and 100 is complete control), Kochia (kochia): 90 | Kochia plant response rating (kochia): 90 | Plant response rating, Kochia (kochia; [10]): 90 | Plant response rating, Kochia (kochia; [11]): 90 | Plant response rating (scale of 0 to 100 where 0 is no effect and 100 is complete control), Velvetleaf (velvetleaf [4]; [12]): 30 | Velvetleaf plant response rating (velvetleaf [4]; 62 g ai/ha): 50 | Plant response rating, Velvetleaf (velvetleaf [4]; [10]): 75 | Plant response rating, Velvetleaf (velvetleaf [4]; [11]): 70

CCCc1cc(C(=O)NC(C)C)nn1Cc1cc(C(F)(F)F)nn1C [Compound 201]
Crabgrass, Large plant response rating (0 to 100 scale) (crabgrass, large; [13]): 100 | Crabgrass, Large plant response rating (crabgrass, large; [6]): 100 | Wheat plant response rating (0 to 100 scale) (wheat [1]; [13]): 80 | Wheat plant response rating (wheat [1]; [6]): 100 | Wheat plant response rating (wheat [2]; Postemergence, 125 g ai/ha, 0 to 100 scale, 0 no effect, 100 complete control): 90 | Wheat plant response rating (wheat [2]; Postemergence, 500 g ai/ha, 0 to 100 scale (0 no effect, 100 complete control)): 100 | Corn plant response rating (corn; [7]): 40 | Corn plant response rating (corn; [8]): 60 | Plant response rating, Corn (corn; [14]): 70 | Corn plant response rating (corn; [15]): 95 | Nutsedge, Yellow plant response rating (nutsedge, yellow; [7]): 5 | Nutsedge, Yellow plant response rating (nutsedge, yellow; [8]): 20 | Plant response rating, Nutsedge, Yellow (nutsedge, yellow; [14]): 55 | Nutsedge, Yellow plant response rating (nutsedge, yellow; [15]): 80 | Waterhemp plant response rating (waterhemp; [7]): 100 | Waterhemp plant response rating (waterhemp; [8]): 100 | Plant response rating, Waterhemp (waterhemp; [14]): 98 | Waterhemp plant response rating (waterhemp; [15]): 98 | Velvetleaf plant response rating (velvetleaf [3]; [7]): 90 | Velvetleaf plant response rating (velvetleaf [3]; [8]): 100 | Plant response rating, Velvetleaf (velvetleaf [3]; [14]): 100 | Velvetleaf plant response rating (velvetleaf [3]; [15]): 100 | Plant response rating (scale of 0 to 100 where 0 is no effect and 100 is complete control), Blackgrass (blackgrass): 20 | Blackgrass plant response rating (blackgrass): 5 | Plant response rating, Blackgrass (blackgrass; [10]): 60 | Plant response rating, Blackgrass (blackgrass; [11]): 15 | Plant response rating, Soybean (soybean; [10]): 98 | Soybean plant response rating (soybean; [11]): 95 | Plant response rating (scale of 0 to 100 where 0 is no effect and 100 is complete control), Barnyardgrass (barnyardgrass): 5 | Barnyardgrass plant response rating (barnyardgrass): 10 | Plant response rating, Barnyardgrass (barnyardgrass; [10]): 60 | Plant response rating, Barnyardgrass (barnyardgrass; [11]): 35 | Oilseed Rape plant response rating (oilseed rape): 60 | Plant response rating, Oilseed Rape (oilseed rape; [10]): 80 | Plant response rating, Oilseed Rape (oilseed rape; [11]): 50 | Plant response rating (scale of 0 to 100 where 0 is no effect and 100 is complete control), Kochia (kochia): 85 | Kochia plant response rating (kochia): 85 | Plant response rating, Kochia (kochia; [10]): 90 | Plant response rating, Kochia (kochia; [11]): 90 | Plant response rating, Velvetleaf (velvetleaf [4]; [10]): 80 | Velvetleaf plant response rating (velvetleaf [4]): 60
